These results are taken from ChEMBL document CHEMBL1139090, “Synthesis of potent and tissue-selective androgen receptor modulators (SARMs): 2-(2,2,2)-Trifluoroethyl-benzimidazole scaffold” (Bioorg Med Chem Lett, 2007).

What is called Inhibition is the drop in the measured response relative to a control, in per cent. One may read the IC50 as the concentration that inhibits the measured activity by half. The low end stands for greater potency in that assay, the high end for weaker potency in that assay.

The test system of series [1] is Rattus norvegicus. Nature of the series: Inhibition of prostate weight in immature Sprague-Dawley rat at 2 mg/day, sc relative to testosterone. It counts as functional, Prostate gland. To be noted: for Activity: Prostate gland.
The species entered for series [2] is Rattus norvegicus. Nature of the series: Stimulation of levator ani muscle weight in immature Sprague-Dawley rat at 2 mg/day relative to testosterone. It counts as functional.
The species entered for series [3] is Rattus norvegicus. Briefly: Stimulation of levator ani muscle weight in mature Sprague-Dawley rat. Format: functional.
Series [4] is filed under the species Rattus norvegicus. Nature of the series: Stimulation of levator ani muscle weight in immature Sprague-Dawley rat. It counts as functional.
The next series has as its target T1, Androgen receptor (Homo sapiens, UniProt P10275).
T1 sequence (P10275 whole entry): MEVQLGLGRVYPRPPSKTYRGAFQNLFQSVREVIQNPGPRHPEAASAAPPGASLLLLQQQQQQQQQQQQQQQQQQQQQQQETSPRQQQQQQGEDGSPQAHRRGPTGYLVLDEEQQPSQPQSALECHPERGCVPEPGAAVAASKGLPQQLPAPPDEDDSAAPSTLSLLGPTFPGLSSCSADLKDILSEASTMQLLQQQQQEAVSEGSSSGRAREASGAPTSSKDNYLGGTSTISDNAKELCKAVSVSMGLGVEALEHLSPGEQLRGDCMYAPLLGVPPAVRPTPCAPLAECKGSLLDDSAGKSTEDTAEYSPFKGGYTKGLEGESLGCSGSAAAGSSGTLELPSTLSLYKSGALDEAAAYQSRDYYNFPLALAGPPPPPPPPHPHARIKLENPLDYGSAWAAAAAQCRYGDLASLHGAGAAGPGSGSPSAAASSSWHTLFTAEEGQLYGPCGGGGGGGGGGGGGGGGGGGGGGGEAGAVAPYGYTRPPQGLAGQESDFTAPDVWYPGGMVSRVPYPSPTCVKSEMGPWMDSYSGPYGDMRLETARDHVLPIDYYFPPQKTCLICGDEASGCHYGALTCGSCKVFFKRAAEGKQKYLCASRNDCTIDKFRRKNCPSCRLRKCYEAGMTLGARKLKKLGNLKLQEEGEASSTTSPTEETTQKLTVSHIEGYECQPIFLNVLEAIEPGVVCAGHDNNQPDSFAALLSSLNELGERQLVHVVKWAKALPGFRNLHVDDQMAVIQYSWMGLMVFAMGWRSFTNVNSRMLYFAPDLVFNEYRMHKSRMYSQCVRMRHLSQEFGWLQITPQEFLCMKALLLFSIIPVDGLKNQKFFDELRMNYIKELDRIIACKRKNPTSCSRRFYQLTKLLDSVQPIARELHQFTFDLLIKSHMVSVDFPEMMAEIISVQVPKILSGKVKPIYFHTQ
Nature of the series: Binding affinity at androgen receptor expressed in COS cells by whole cell binding assay. It counts as cell-based.

The species entered for series [5] is Rattus norvegicus. Nature of the series: Inhibition of prostate weight in immature Sprague-Dawley rat. Format: functional, Prostate gland.
The species entered for series [6] is Rattus norvegicus. Briefly: Toxicity in immature Sprague-Dawley rat at 3 mg/day. Format: organism-based. As to conditions: in vivo.

Active and inactive are the calls of the source. The rule behind the calls is not given here.

As for `C=C(C)CC(O)(c1nc2cc(Cl)c(Cl)cc2[nH]1)C(F)(F)F` (stereo unspecified), in the series with Rattus norvegicus [1], the Inhibition came out at 59%. Besides, the Activity in the series filed under Rattus norvegicus [2] amounted to 17%.
The corresponding values for `CC#CC(O)(c1nc2cc(Cl)c(Cl)cc2[nH]1)C(F)(F)F` (stereo unspecified) are 79% and “inactive”.
As to `FC(F)(F)C1(c2nc3cc(Cl)c(Cl)cc3[nH]2)CCCN1` (stereo unspecified), the Inhibition with Rattus norvegicus [1] was 35%. The compound further returned an Activity in the series filed under Rattus norvegicus [2] of 4%.
As for `C=CC(O)(c1nc2cc(Cl)c(Cl)cc2[nH]1)C(F)(F)F` (stereo unspecified), the Inhibition in the series with Rattus norvegicus [1] is listed as 56%. The same compound yielded an Activity in the series listed under Rattus norvegicus [2] of 82%. Also, the ED50 in the series filed under Rattus norvegicus [3] was under 0.3 mg/kg; in the series listed under Rattus norvegicus [4] it was 0.04 mg/day. In addition, at Androgen receptor, the concentration for half-maximal inhibition (IC50) turned out to be 7 nM.
As to `OC(Cc1ccccc1)(c1nc2cc(Cl)c(Cl)cc2[nH]1)C(F)(F)F` (stereo unspecified), the Inhibition with Rattus norvegicus [1] is listed as 86%. The outcome in the series listed under Rattus norvegicus [2] was inactive.
Consider `N#CCC(O)(c1nc2cc(Cl)c(Cl)cc2[nH]1)C(F)(F)F` (stereo unspecified), for which the Inhibition in the series with Rattus norvegicus [1] is reported as 9%. This compound returned an Activity in the series listed under Rattus norvegicus [2] of 126%. In the series filed under Rattus norvegicus [4], the ED50 was 0.03 mg/day.
With `OC(CSCC(F)(F)F)(c1nc2cc(Cl)c(Cl)cc2[nH]1)C(F)(F)F` (stereo unspecified), the outcome in the series with Rattus norvegicus [1] was inactive. This compound had an Activity in the series listed under Rattus norvegicus [2] of 26%.
For the compound `C[C@](O)(CS(=O)(=O)c1ccc(F)cc1)C(=O)Nc1ccc(C#N)c(C(F)(F)F)c1` [(R)-BICALUTAMIDE], the Inhibition in the series with Rattus norvegicus [1] came out at 70%. For the same compound, in the series filed under Rattus norvegicus [2], the outcome was inactive.
For `C=C=C(C)C(O)(c1nc2cc(Cl)c(Cl)cc2[nH]1)C(F)(F)F` (stereo unspecified), in that order: 78% and 15%.
In the case of `CCSCC(O)(c1nc2cc(Cl)c(Cl)cc2[nH]1)C(F)(F)F` (stereo unspecified), in the series with Rattus norvegicus [1], the Inhibition came to 31%. Further, the Activity in the series listed under Rattus norvegicus [2] was determined as 96%. In the series listed under Rattus norvegicus [4], this compound yielded an ED50 of 0.1 mg/day. The compound also came in with a half-maximal inhibitory concentration (IC50) on Androgen receptor of 17 nM.
Take `CC(C)=C(C)C(O)(c1nc2cc(Cl)c(Cl)cc2[nH]1)C(F)(F)F` (stereo unspecified): the Inhibition with Rattus norvegicus [1] is on record as 47%. Further, the result in the series listed under Rattus norvegicus [2] was inactive.
Take `CC(C)=CC(O)(c1nc2cc(Cl)c(Cl)cc2[nH]1)C(F)(F)F` (stereo unspecified): the Inhibition with Rattus norvegicus [1] was 45%. In the series listed under Rattus norvegicus [2], the Activity worked out at 13%.
On to `CCCC(O)(c1nc2cc(Cl)c(Cl)cc2[nH]1)C(F)(F)F` (stereo unspecified), for which the Inhibition in the series with Rattus norvegicus [1] worked out at 63%. For the same compound, the Activity in the series filed under Rattus norvegicus [2] worked out at 67%.
For the compound `C/C=C/C(O)(c1nc2cc(Cl)c(Cl)cc2[nH]1)C(F)(F)F` (stereo unspecified), the Inhibition in the series on Rattus norvegicus [1] worked out at 61%. Also, the Activity in the series listed under Rattus norvegicus [2] worked out at 23%.
For the compound `OC(Cc1ccc(F)cc1)(c1nc2cc(Cl)c(Cl)cc2[nH]1)C(F)(F)F` (stereo unspecified), the Inhibition with Rattus norvegicus [1] is recorded as 72%. Also, in the series filed under Rattus norvegicus [2], the outcome was inactive.
On to `FC(F)(F)C1(c2nc3cc(Cl)c(Cl)cc3[nH]2)C=CCO1` (stereo unspecified), for which, in the series with Rattus norvegicus [1], the outcome was inactive. The compound further returned an Activity in the series filed under Rattus norvegicus [2] of 50%.
As to `OC(c1ccccc1)(c1nc2cc(Cl)c(Cl)cc2[nH]1)C(F)(F)F` (stereo unspecified), in the series with Rattus norvegicus [1], the Inhibition is 61%. Further, the result in the series listed under Rattus norvegicus [2] was inactive.
As to `C=CCC(O)(c1nc2cc(Cl)c(Cl)cc2[nH]1)C(F)(F)F` (stereo unspecified), the Inhibition in the series on Rattus norvegicus [1] amounted to 87%. Besides, the Activity in the series filed under Rattus norvegicus [2] was found to be 34%. This compound also yielded an ID50 in the series filed under Rattus norvegicus [5] of 0.67 mg/day. In the series listed under Rattus norvegicus [4], the ED50 worked out at 1.4 mg/day.
Turning to `C#CCC(O)(c1nc2cc(Cl)c(Cl)cc2[nH]1)C(F)(F)F` (stereo unspecified), in the series on Rattus norvegicus [1], the Inhibition was 68%. For the same compound, the Activity in the series listed under Rattus norvegicus [2] amounted to 71%.
Turning to `FC(F)(F)C1(c2nc3cc(Cl)c(Cl)cc3[nH]2)CCCO1` (stereo unspecified), the Inhibition with Rattus norvegicus [1] is listed as 55%. The same compound registered an Activity in the series listed under Rattus norvegicus [2] of 64%.
The corresponding values for `CCC(C)(C)C(O)(c1nc2cc(Cl)c(Cl)cc2[nH]1)C(F)(F)F` (stereo unspecified) are 42% and 11%.
The corresponding values for `C=C(C)C(O)(c1nc2cc(Cl)c(Cl)cc2[nH]1)C(F)(F)F` (stereo unspecified) are 127% and “inactive”.
Consider `C/C=C\C(O)(c1nc2cc(Cl)c(Cl)cc2[nH]1)C(F)(F)F` (stereo unspecified), for which, in the series on Rattus norvegicus [1], the Inhibition came out at 70%. This compound came in with an Activity in the series filed under Rattus norvegicus [2] of 73%. The ED50 in the series listed under Rattus norvegicus [4] is on record as 0.11 mg/day.
Consider `C/C=C/CC(O)(c1nc2cc(Cl)c(Cl)cc2[nH]1)C(F)(F)F` (stereo unspecified), for which the Inhibition with Rattus norvegicus [1] was determined as 74%. This compound gave an Activity in the series filed under Rattus norvegicus [2] of 10%.
On to `CC(C)C(O)(c1nc2cc(Cl)c(Cl)cc2[nH]1)C(F)(F)F` (stereo unspecified), for which the Inhibition in the series with Rattus norvegicus [1] came out at 33%. Moreover, the Activity in the series listed under Rattus norvegicus [2] is 87%. This compound showed an ED50 in the series filed under Rattus norvegicus [4] of 0.05 mg/day. The compound also displayed a 50% inhibitory concentration (IC50) on Androgen receptor of 2 nM.
In the case of `C=C=CC(O)(c1nc2cc(Cl)c(Cl)cc2[nH]1)C(F)(F)F` (stereo unspecified), the Inhibition in the series with Rattus norvegicus [1] worked out at 85%. For the same compound, in the series listed under Rattus norvegicus [2], the Activity is on record as 99%. The same compound showed an ED50 in the series filed under Rattus norvegicus [4] of 0.075 mg/day.
For `FC(F)(F)C1(c2nc3cc(Cl)c(Cl)cc3[nH]2)C=CCN1` (stereo unspecified), the Inhibition in the series on Rattus norvegicus [1] is listed as 57%. The Activity in the series listed under Rattus norvegicus [2] amounted to 8%.
For `CC(C)=CCC(O)(c1nc2cc(Cl)c(Cl)cc2[nH]1)C(F)(F)F` (stereo unspecified), in that order: 71% and “inactive”.
`CCC(O)(c1nc2cc(Cl)c(Cl)cc2[nH]1)C(F)(F)F` (stereo unspecified): the Inhibition with Rattus norvegicus [1] turned out to be 25%. For the same compound, the Activity is 106% in the series listed under Rattus norvegicus [2] and “Toxic” in the series listed under Rattus norvegicus [6].
